Test results published in the NIST ThermoML archive (doi:10.1016/j.jct.2007.04.005).
± gives the expanded uncertainty stated by the source.

Experiment: xn = mol fraction of the nth substance listed
Conditions: 328.15 K, Liquid

CCCCCCCCC [nonane] + C1CCCCC1
mass density (100 kPa, x2 = 0): 690.5 ± 0.7 kg/m3 | mass density (100 kPa, x2 = 0.09303): 693.4 ± 0.7 kg/m3 | mass density (100 kPa, x2 = 0.2009): 697 ± 0.7 kg/m3 | mass density (100 kPa, x2 = 0.3051): 700.9 ± 0.7 kg/m3 | mass density (100 kPa, x2 = 0.417): 705.3 ± 0.6 kg/m3 | mass density (100 kPa, x2 = 0.512): 709.7 ± 0.6 kg/m3 | mass density (100 kPa, x2 = 0.5996): 714.5 ± 0.6 kg/m3 | mass density (100 kPa, x2 = 0.7052): 720.8 ± 0.6 kg/m3 | mass density (100 kPa, x2 = 0.7993): 727.5 ± 0.6 kg/m3 | mass density (100 kPa, x2 = 0.9039): 735.7 ± 0.6 kg/m3 | mass density (101 kPa, x2 = 0): 690.88 ± 0.7 kg/m3 | mass density (101 kPa, x2 = 0.1022): 693.98 ± 0.68 kg/m3 | mass density (101 kPa, x2 = 0.1548): 695.7 ± 0.68 kg/m3 | mass density (101 kPa, x2 = 0.2009): 697.27 ± 0.67 kg/m3 | mass density (101 kPa, x2 = 0.2591): 699.37 ± 0.66 kg/m3 | mass density (101 kPa, x2 = 0.3306): 702.13 ± 0.65 kg/m3 | mass density (101 kPa, x2 = 0.4003): 705.03 ± 0.64 kg/m3 | mass density (101 kPa, x2 = 0.4596): 707.71 ± 0.63 kg/m3 | mass density (101 kPa, x2 = 0.5321): 711.23 ± 0.62 kg/m3 | mass density (101 kPa, x2 = 0.612): 715.53 ± 0.6 kg/m3 | mass density (101 kPa, x2 = 0.6649): 718.62 ± 0.59 kg/m3 | mass density (101 kPa, x2 = 0.7224): 722.28 ± 0.58 kg/m3 | mass density (101 kPa, x2 = 0.8047): 728.07 ± 0.57 kg/m3 | mass density (101 kPa, x2 = 0.8686): 733.12 ± 0.56 kg/m3 | mass density (101 kPa, x2 = 0.9405): 739.53 ± 0.54 kg/m3 | mass density (2130 kPa, x2 = 0): 691.4 ± 0.8 kg/m3 | mass density (2130 kPa, x2 = 0.09303): 694.3 ± 0.8 kg/m3 | mass density (2130 kPa, x2 = 0.2009): 697.9 ± 0.8 kg/m3 | mass density (2130 kPa, x2 = 0.3051): 701.8 ± 0.8 kg/m3 | mass density (2130 kPa, x2 = 0.417): 706.3 ± 0.8 kg/m3 | mass density (2130 kPa, x2 = 0.512): 710.7 ± 0.7 kg/m3 | mass density (2130 kPa, x2 = 0.5996): 715.6 ± 0.7 kg/m3 | mass density (2130 kPa, x2 = 0.7052): 721.9 ± 0.7 kg/m3 | mass density (2130 kPa, x2 = 0.7993): 728.6 ± 0.7 kg/m3 | mass density (2130 kPa, x2 = 0.9039): 737 ± 0.7 kg/m3 | mass density (4150 kPa, x2 = 0): 694.4 ± 0.9 kg/m3 | mass density (4150 kPa, x2 = 0.09303): 697.3 ± 0.9 kg/m3 | mass density (4150 kPa, x2 = 0.2009): 700.9 ± 0.9 kg/m3 | mass density (4150 kPa, x2 = 0.3051): 704.8 ± 0.9 kg/m3 | mass density (4150 kPa, x2 = 0.417): 709.3 ± 0.8 kg/m3 | mass density (4150 kPa, x2 = 0.512): 713.7 ± 0.8 kg/m3 | mass density (4150 kPa, x2 = 0.5996): 718.6 ± 0.8 kg/m3 | mass density (4150 kPa, x2 = 0.7052): 724.9 ± 0.8 kg/m3 | mass density (4150 kPa, x2 = 0.7993): 731.6 ± 0.8 kg/m3 | mass density (4150 kPa, x2 = 0.9039): 739.9 ± 0.8 kg/m3 | mass density (6180 kPa, x2 = 0): 696.3 ± 1 kg/m3 | mass density (6180 kPa, x2 = 0.09303): 699.2 ± 1 kg/m3 | mass density (6180 kPa, x2 = 0.2009): 702.8 ± 1 kg/m3 | mass density (6180 kPa, x2 = 0.3051): 706.7 ± 0.9 kg/m3 | mass density (6180 kPa, x2 = 0.417): 711.2 ± 0.9 kg/m3 | mass density (6180 kPa, x2 = 0.512): 715.6 ± 0.9 kg/m3 | mass density (6180 kPa, x2 = 0.5996): 720.5 ± 0.9 kg/m3 | mass density (6180 kPa, x2 = 0.7052): 726.9 ± 0.9 kg/m3 | mass density (6180 kPa, x2 = 0.7993): 733.5 ± 0.8 kg/m3 | mass density (6180 kPa, x2 = 0.9039): 741.9 ± 0.8 kg/m3 | mass density (8210 kPa, x2 = 0): 698.1 ± 1.1 kg/m3 | mass density (8210 kPa, x2 = 0.09303): 701 ± 1.1 kg/m3 | mass density (8210 kPa, x2 = 0.2009): 704.7 ± 1 kg/m3 | mass density (8210 kPa, x2 = 0.3051): 708.6 ± 1 kg/m3 | mass density (8210 kPa, x2 = 0.417): 713.1 ± 1 kg/m3 | mass density (8210 kPa, x2 = 0.512): 717.5 ± 1 kg/m3 | mass density (8210 kPa, x2 = 0.5996): 722.4 ± 1 kg/m3 | mass density (8210 kPa, x2 = 0.7052): 728.8 ± 0.9 kg/m3 | mass density (8210 kPa, x2 = 0.7993): 735.5 ± 0.9 kg/m3 | mass density (8210 kPa, x2 = 0.9039): 743.9 ± 0.9 kg/m3 | mass density (10230 kPa, x2 = 0): 699.9 ± 1.2 kg/m3 | mass density (10230 kPa, x2 = 0.09303): 702.8 ± 1.2 kg/m3 | mass density (10230 kPa, x2 = 0.2009): 706.5 ± 1.1 kg/m3 | mass density (10230 kPa, x2 = 0.3051): 710.4 ± 1.1 kg/m3 | mass density (10230 kPa, x2 = 0.417): 714.9 ± 1.1 kg/m3 | mass density (10230 kPa, x2 = 0.512): 719.3 ± 1.1 kg/m3 | mass density (10230 kPa, x2 = 0.5996): 724.3 ± 1 kg/m3 | mass density (10230 kPa, x2 = 0.7052): 730.7 ± 1 kg/m3 | mass density (10230 kPa, x2 = 0.7993): 737.3 ± 1 kg/m3 | mass density (10230 kPa, x2 = 0.9039): 745.8 ± 1 kg/m3 | mass density (11250 kPa, x2 = 0): 700.8 ± 1.2 kg/m3 | mass density (11250 kPa, x2 = 0.09303): 703.7 ± 1.2 kg/m3 | mass density (11250 kPa, x2 = 0.2009): 707.4 ± 1.2 kg/m3 | mass density (11250 kPa, x2 = 0.3051): 711.3 ± 1.2 kg/m3 | mass density (11250 kPa, x2 = 0.417): 715.8 ± 1.1 kg/m3 | mass density (11250 kPa, x2 = 0.512): 720.2 ± 1.1 kg/m3 | mass density (11250 kPa, x2 = 0.5996): 725.2 ± 1.1 kg/m3 | mass density (11250 kPa, x2 = 0.7052): 731.6 ± 1.1 kg/m3 | mass density (11250 kPa, x2 = 0.7993): 738.3 ± 1 kg/m3 | mass density (11250 kPa, x2 = 0.9039): 746.7 ± 1 kg/m3 | mass density (12260 kPa, x2 = 0): 701.7 ± 1.3 kg/m3 | mass density (12260 kPa, x2 = 0.09303): 704.6 ± 1.2 kg/m3 | mass density (12260 kPa, x2 = 0.2009): 708.3 ± 1.2 kg/m3 | mass density (12260 kPa, x2 = 0.3051): 712.2 ± 1.2 kg/m3 | mass density (12260 kPa, x2 = 0.417): 716.7 ± 1.2 kg/m3 | mass density (12260 kPa, x2 = 0.512): 721.1 ± 1.1 kg/m3 | mass density (12260 kPa, x2 = 0.5996): 726.1 ± 1.1 kg/m3 | mass density (12260 kPa, x2 = 0.7052): 732.5 ± 1.1 kg/m3 | mass density (12260 kPa, x2 = 0.7993): 739.2 ± 1.1 kg/m3 | mass density (12260 kPa, x2 = 0.9039): 747.7 ± 1 kg/m3 | mass density (14290 kPa, x2 = 0): 703.4 ± 1.3 kg/m3 | mass density (14290 kPa, x2 = 0.09303): 706.3 ± 1.3 kg/m3 | mass density (14290 kPa, x2 = 0.2009): 710.1 ± 1.3 kg/m3 | mass density (14290 kPa, x2 = 0.3051): 714 ± 1.3 kg/m3 | mass density (14290 kPa, x2 = 0.417): 718.5 ± 1.2 kg/m3 | mass density (14290 kPa, x2 = 0.512): 722.9 ± 1.2 kg/m3 | mass density (14290 kPa, x2 = 0.5996): 727.9 ± 1.2 kg/m3 | mass density (14290 kPa, x2 = 0.7052): 734.4 ± 1.2 kg/m3 | mass density (14290 kPa, x2 = 0.7993): 741 ± 1.1 kg/m3 | mass density (14290 kPa, x2 = 0.9039): 749.5 ± 1.1 kg/m3 | mass density (16310 kPa, x2 = 0): 705.1 ± 1.4 kg/m3 | mass density (16310 kPa, x2 = 0.09303): 708 ± 1.4 kg/m3 | mass density (16310 kPa, x2 = 0.2009): 711.8 ± 1.4 kg/m3 | mass density (16310 kPa, x2 = 0.3051): 715.7 ± 1.4 kg/m3 | mass density (16310 kPa, x2 = 0.417): 720.2 ± 1.3 kg/m3 | mass density (16310 kPa, x2 = 0.512): 724.6 ± 1.3 kg/m3 | mass density (16310 kPa, x2 = 0.5996): 729.7 ± 1.3 kg/m3 | mass density (16310 kPa, x2 = 0.7052): 736.1 ± 1.2 kg/m3 | mass density (16310 kPa, x2 = 0.7993): 742.8 ± 1.2 kg/m3 | mass density (16310 kPa, x2 = 0.9039): 751.3 ± 1.2 kg/m3 | mass density (18340 kPa, x2 = 0): 706.8 ± 1.5 kg/m3 | mass density (18340 kPa, x2 = 0.09303): 709.6 ± 1.5 kg/m3 | mass density (18340 kPa, x2 = 0.2009): 713.4 ± 1.5 kg/m3 | mass density (18340 kPa, x2 = 0.3051): 717.3 ± 1.4 kg/m3 | mass density (18340 kPa, x2 = 0.417): 721.9 ± 1.4 kg/m3 | mass density (18340 kPa, x2 = 0.512): 726.3 ± 1.4 kg/m3 | mass density (18340 kPa, x2 = 0.5996): 731.4 ± 1.3 kg/m3
